The values below are quoted from earlier work in patent publication US6132766A, “Multivesicular liposomes with controlled release of encapsulated biologically active substances” (priority 1998, dated 2000).

Data set [1] concerns strains of both gram negative and gram positive bacteria. As to conditions: background statement.
The conditions of data set [2]: unencapsulated drug; about.

Regarding `NCC[C@H](O)C(=O)N[C@@H]1C[C@H](N)[C@@H](O[C@H]2O[C@H](CN)[C@@H](O)[C@H](O)[C@H]2O)[C@H](O)[C@H]1O[C@H]1O[C@H](CO)[C@@H](O)[C@H](N)[C@H]1O` [amikacin], the “activity against strains of both gram negative and gram positive bacteria” value in data set [1] is “clinically significant activity”. The serum half-life entry in data set [2] was “two to three”.
